The source made the active and inactive calls.
Legend:
Bcl-2-like protein 10 = biological target: T1, Bcl-2-like protein 10 (Homo sapiens, UniProt Q9HD36); test: displacers of TR3 peptide from Bcl-B, primary screen, selectivity assay for Bfl-1 inhibitor project, biochemical, fluorescence polarization, FITC-TR3 peptide (AID 748);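 note: fluorescence polarization from a fluorescein-labelled TR3 peptide binding purified Bcl-B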
T1 sequence (Q9HD36 whole entry): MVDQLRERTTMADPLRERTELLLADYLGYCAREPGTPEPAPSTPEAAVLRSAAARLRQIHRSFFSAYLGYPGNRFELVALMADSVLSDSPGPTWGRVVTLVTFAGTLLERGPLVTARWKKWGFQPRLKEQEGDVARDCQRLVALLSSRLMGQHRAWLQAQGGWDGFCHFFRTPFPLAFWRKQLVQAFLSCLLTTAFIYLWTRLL

Estrogen receptor beta [1] = biological target: T2, Estrogen receptor beta (Homo sapiens, UniProt Q92731);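 note: recombinant ER-beta bound to coactivator SRC1 peptide in presence of estradiol agonist; inhibitors block coactivator peptide binding and lower the FRET signal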
T2 sequence (Q92731 whole entry): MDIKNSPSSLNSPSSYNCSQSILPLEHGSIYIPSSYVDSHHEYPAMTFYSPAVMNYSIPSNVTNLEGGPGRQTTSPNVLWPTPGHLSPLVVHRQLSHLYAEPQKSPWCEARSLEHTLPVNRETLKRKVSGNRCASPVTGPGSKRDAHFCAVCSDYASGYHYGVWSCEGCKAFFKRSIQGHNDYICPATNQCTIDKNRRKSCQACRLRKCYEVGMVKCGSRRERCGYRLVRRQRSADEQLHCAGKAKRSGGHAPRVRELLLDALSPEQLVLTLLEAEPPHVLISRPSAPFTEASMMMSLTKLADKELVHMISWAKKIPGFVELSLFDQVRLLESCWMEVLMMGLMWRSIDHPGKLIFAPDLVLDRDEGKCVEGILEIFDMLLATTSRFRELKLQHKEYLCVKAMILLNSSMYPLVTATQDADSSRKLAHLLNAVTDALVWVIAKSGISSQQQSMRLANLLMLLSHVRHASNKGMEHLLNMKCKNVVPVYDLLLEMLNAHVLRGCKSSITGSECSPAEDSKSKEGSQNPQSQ

Estrogen receptor beta [2] = biological target: T2, Estrogen receptor beta; test: ERβ–SRC-3 coactivator interaction inhibitors, confirmation, orthogonal assay, biochemical, ELISA, streptavidin-HRP readout (AID 1060)
[3] = biological target: T3, Bifunctional protein GlmU (Mycobacterium tuberculosis, UniProt P9WMN3); test: Inhibitors of Mycobacterial Glucosamine-1-phosphate acetyl transferase (GlmU). Secondary screen.; set-up: species or system Mycobacterium tuberculosis H37Rv
T3 sequence (P9WMN3 whole entry): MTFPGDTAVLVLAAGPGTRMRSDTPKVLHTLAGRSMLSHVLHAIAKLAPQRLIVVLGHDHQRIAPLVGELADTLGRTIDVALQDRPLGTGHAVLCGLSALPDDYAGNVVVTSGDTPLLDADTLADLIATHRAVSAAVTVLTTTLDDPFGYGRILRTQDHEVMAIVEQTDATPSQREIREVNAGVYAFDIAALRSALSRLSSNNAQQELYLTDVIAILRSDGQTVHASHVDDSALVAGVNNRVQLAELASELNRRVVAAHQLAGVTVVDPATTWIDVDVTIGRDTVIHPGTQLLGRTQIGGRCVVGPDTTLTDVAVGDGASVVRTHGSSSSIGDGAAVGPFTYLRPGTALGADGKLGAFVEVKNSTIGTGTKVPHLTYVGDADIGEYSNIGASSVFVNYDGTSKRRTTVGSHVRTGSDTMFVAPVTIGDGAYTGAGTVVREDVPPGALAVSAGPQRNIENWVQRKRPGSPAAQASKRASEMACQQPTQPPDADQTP

Cytochrome P450 2D6 = Cytochrome P450 2D6 (Homo sapiens, UniProt P10635); test: qHTS Assay for Inhibitors and Substrates of Cytochrome P450 2D6. [Related pubchem assays: 410 ]; type: ADME; settings: read-out: Potency
Sequence of Cytochrome P450 2D6 (P10635 whole entry): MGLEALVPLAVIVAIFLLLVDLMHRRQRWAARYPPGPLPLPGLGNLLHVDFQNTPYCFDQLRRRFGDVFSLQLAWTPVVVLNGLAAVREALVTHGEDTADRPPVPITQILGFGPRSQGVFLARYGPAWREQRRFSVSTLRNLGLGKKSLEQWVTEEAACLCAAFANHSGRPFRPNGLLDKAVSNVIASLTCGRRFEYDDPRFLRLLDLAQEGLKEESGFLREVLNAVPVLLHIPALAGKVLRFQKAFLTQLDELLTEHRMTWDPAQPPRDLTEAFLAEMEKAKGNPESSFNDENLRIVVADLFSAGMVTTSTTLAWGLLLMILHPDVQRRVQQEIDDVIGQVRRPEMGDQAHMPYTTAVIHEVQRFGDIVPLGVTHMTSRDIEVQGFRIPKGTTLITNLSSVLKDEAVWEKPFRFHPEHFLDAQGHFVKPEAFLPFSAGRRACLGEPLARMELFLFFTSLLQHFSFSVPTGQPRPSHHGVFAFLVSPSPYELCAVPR

HEK293 [4] = test: NOD1 signaling inhibitors, primary screen, cell-based, luminescence, uHTS (AID 1578); type: functional; settings: Homo sapiens
HEK293 [5] = test: cells; type: functional, cell-based; settings: Homo sapiens
HEK293 [6] = test: cells; type: functional, cell-based; settings: Homo sapiens; remark: listed apart in the source
[7] = biological target: Nucleotide-binding oligomerization domain-containing protein 2 (Homo sapiens, UniProt Q9HC29); test: NOD2 signaling inhibitors, cell-based, luminescence, uHTS, HEK293 (AID 1566); type: functional
Sequence of Nucleotide-binding oligomerization domain-containing protein 2 (Q9HC29 whole entry, the tested form may be a part): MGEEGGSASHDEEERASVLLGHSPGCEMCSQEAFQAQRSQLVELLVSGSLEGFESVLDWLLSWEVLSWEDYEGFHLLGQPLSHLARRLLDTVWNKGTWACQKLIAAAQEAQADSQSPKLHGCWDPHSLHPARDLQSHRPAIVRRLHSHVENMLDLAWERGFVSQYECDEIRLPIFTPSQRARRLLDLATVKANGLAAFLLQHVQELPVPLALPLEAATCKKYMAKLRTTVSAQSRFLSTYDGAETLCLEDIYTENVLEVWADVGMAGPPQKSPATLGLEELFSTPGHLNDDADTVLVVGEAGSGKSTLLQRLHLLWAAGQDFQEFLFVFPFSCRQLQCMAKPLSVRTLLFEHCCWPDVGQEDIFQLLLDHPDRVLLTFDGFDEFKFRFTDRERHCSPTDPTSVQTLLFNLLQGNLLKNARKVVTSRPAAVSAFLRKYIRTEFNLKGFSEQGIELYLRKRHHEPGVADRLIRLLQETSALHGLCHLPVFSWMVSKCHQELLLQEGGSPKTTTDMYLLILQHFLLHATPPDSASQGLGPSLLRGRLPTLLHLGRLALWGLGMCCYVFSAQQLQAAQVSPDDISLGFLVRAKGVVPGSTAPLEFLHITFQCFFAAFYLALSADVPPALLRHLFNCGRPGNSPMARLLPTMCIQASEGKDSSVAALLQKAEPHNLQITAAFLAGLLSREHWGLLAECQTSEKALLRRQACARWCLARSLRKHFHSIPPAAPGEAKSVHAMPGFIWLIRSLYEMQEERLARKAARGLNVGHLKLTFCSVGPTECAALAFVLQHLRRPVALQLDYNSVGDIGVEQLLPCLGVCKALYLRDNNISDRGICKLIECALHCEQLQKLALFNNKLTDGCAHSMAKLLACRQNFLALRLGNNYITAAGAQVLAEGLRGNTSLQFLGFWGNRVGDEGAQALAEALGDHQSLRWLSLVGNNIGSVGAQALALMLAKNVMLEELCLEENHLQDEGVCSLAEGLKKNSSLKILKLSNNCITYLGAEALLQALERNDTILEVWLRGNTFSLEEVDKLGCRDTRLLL

HEK293 [8] = test: NOD2 signaling inhibitors in MDP-stimulated cells, cell-based, uHTS, luminescence (AID 2001); type: functional; settings: Homo sapiens
HEK293 [9] = test: cells; type: functional, cell-based; settings: Homo sapiens; remark: listed apart in the source
Tumor necrosis factor = Tumor necrosis factor (Homo sapiens, UniProt P01375); test: TNFa-triggered NF-kB activation inhibitors, SAR follow-up, cell-based, revised (AID 2337); type: functional
Sequence of Tumor necrosis factor (P01375 whole entry, the tested form may be a part): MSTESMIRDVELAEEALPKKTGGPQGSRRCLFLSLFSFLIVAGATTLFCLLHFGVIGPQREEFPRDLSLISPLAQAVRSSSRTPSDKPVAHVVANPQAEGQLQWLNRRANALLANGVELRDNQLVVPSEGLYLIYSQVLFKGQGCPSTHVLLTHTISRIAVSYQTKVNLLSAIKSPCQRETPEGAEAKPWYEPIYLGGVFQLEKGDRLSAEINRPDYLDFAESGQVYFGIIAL

[10] = biological target: T4, Nucleotide-binding oligomerization domain-containing protein 1 (Homo sapiens, UniProt Q9Y239); test: NOD1 signaling inhibitors, SAR follow-up, revised (AID 2333); type: functional
T4 sequence (Q9Y239 whole entry): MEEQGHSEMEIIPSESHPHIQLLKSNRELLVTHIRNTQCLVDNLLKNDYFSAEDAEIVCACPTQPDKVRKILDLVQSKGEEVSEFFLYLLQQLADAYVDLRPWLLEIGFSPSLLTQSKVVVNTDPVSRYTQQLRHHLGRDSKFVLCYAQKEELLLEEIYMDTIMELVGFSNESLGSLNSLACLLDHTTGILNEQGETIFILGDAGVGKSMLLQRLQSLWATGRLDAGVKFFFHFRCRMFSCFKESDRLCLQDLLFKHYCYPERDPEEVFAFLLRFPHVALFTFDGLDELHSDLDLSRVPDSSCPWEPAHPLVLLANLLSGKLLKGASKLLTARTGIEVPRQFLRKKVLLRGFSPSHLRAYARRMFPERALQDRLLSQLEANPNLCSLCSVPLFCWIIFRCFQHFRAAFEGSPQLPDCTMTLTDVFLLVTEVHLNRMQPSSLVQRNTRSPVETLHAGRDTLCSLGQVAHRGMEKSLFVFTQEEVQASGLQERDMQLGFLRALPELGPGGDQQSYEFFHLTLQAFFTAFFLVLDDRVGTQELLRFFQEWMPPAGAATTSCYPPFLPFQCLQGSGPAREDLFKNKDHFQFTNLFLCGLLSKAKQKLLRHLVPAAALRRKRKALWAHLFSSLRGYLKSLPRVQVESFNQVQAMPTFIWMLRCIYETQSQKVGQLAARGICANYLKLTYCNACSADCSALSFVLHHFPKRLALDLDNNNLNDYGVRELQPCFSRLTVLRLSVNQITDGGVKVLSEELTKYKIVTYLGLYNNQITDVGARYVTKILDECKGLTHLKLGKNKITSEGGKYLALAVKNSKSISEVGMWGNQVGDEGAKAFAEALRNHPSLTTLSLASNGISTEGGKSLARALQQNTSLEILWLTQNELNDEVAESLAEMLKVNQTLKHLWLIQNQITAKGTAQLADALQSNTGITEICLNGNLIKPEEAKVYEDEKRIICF

[11] = Shn3 3'UTR reporter inhibitors, dose response, cell-based, Clone20 osteoblasts, firefly luciferase, cherry-picked (AID 624132); type: functional;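 note: firefly luciferase luminescence from reporter carrying the Shn3 3'UTR in osteoblasts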
[12] = HepG2 cell cytotoxicity, dose response, cytotoxicity control for Shn3 inhibitor project, CellTiter-Glo, cherry-picked (AID 624134); type: functional, cell-based
[13] = control 3'UTR Renilla luciferase suppression, dose response, counter-screen for Shn3 inhibitor project, cell-based, Clone20-Shn3RL, cherry-picked (AID 624133); type: functional
HEK293 [14] = test: cells; settings: Homo sapiens
[15] = THP-1 cell cytotoxicity, dose response, cytotoxicity control for non-replicating M. tuberculosis project (AID 489025); type: functional
Nonstructural protein 1 = Nonstructural protein 1 (Influenza A virus, UniProt Q194T2); type: functional, Influenza A virus (A/California/07/2009(H1N1))
Sequence of Nonstructural protein 1 (Q194T2 whole entry): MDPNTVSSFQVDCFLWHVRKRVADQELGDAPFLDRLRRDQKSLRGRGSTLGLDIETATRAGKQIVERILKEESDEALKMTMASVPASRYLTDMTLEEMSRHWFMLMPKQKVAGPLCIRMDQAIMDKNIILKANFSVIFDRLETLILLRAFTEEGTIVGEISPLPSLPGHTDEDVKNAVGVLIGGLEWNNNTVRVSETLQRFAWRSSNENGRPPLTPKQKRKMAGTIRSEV

cells = type: functional
Estrogen receptor = biological target: T5, Estrogen receptor (Homo sapiens, UniProt P03372); test: potentiators of ERα–SRC-1 coactivator binding, dose response, biochemical, TR-FRET, ERα LBD (AID 737)
T5 sequence (P03372 whole entry): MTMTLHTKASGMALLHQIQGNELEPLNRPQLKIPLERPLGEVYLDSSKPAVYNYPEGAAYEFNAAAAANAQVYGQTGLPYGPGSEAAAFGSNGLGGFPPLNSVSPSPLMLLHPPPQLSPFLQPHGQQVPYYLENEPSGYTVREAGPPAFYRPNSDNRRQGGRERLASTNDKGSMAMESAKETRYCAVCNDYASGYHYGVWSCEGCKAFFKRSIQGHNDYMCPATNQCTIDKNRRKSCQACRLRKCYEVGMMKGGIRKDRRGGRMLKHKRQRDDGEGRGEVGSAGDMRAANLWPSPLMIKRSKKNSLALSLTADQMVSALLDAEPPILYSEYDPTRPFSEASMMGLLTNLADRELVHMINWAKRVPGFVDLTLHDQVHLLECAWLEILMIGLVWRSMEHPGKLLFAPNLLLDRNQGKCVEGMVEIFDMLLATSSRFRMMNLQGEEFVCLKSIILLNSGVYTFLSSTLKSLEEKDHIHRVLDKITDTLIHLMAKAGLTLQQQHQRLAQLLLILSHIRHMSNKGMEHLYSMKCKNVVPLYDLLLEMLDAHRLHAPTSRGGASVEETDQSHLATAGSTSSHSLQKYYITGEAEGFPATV

Hexokinase HKDC1 = biological target: T6, Hexokinase HKDC1 (Homo sapiens, UniProt Q2TB90); test: HKDC1 hexokinase inhibitors, dose response, biochemical, W721R variant (AID 504729); type: functional
T6 sequence (Q2TB90 whole entry): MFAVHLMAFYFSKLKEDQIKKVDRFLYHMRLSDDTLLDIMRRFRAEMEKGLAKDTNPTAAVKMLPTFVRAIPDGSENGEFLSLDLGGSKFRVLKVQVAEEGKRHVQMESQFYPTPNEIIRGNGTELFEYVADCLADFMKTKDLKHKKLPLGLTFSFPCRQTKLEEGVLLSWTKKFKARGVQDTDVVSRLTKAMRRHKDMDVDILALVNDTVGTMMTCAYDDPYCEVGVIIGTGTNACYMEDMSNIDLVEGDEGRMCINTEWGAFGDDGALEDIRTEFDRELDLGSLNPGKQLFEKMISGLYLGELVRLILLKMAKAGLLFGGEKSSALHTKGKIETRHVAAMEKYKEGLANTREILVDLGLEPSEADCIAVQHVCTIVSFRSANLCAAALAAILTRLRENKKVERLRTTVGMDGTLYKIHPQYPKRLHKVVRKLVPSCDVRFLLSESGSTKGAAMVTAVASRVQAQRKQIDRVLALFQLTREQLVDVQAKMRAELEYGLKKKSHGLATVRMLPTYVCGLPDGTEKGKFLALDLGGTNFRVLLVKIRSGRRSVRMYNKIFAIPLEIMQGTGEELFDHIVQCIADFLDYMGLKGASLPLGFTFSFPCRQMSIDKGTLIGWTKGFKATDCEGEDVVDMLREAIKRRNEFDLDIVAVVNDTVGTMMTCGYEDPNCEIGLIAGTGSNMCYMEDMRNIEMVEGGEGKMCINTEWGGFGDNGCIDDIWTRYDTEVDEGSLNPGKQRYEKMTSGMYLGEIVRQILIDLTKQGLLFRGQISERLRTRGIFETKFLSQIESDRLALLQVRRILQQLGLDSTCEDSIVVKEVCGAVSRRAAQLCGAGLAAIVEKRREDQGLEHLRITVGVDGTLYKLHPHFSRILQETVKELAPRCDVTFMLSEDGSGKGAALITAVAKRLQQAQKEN

[16] = biological target: DNA dC->dU-editing enzyme APOBEC-3A (Homo sapiens, UniProt P31941); test: APOBEC3A DNA deaminase inhibitors, dose response, biochemical (AID 504722); type: functional
Sequence of DNA dC->dU-editing enzyme APOBEC-3A (P31941 whole entry): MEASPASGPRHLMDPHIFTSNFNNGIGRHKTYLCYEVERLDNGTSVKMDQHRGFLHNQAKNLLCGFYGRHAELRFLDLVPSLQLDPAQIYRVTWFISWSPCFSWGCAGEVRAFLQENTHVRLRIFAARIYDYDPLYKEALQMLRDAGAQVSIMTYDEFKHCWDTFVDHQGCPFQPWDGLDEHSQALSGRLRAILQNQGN

[17] = biological target: DNA dC->dU-editing enzyme APOBEC-3G (Homo sapiens, UniProt Q9HC16); test: Dose Response confirmation of small molecule APOBEC3G DNA Deaminase Inhibitors via a fluorescence-based single-stranded DNA deaminase assay. [Related pubchem assays (depositor defined):AID493012, AID493028]; type: functional
Sequence of DNA dC->dU-editing enzyme APOBEC-3G (Q9HC16 whole entry): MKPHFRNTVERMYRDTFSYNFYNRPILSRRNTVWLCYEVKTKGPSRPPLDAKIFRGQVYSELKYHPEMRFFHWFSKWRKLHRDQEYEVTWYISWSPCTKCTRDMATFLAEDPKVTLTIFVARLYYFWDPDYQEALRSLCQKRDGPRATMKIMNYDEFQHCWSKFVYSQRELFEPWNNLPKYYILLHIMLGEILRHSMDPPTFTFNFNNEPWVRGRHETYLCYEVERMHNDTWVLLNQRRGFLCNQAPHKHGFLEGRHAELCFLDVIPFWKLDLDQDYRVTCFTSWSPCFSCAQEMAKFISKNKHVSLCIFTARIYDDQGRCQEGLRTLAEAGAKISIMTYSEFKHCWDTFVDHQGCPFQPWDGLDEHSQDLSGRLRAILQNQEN

Question: With `CSc1nc2n(n1)C(c1ccccn1)C1=C(O)CC(C)(C)CC1=N2` (configuration not stated) as the compound, how does the IC50 (Bcl-2-like protein 10) read?
Answer: Its IC50 is > 100 µM (inactive).

Question: For `Cc1ccc(C)n1-c1sccc1C(=O)O`, which IC50 (Bcl-2-like protein 10) is on record?
Answer: The IC50 was 0.783 µM (active).

Question: What about the IC50 (Estrogen receptor beta [1]) of the same compound?
Answer: The IC50 was 4.48 µM (active).

Question: And the IC50 (Estrogen receptor beta [2])?
Answer: The IC50 was 6.1 µM (not active).

Question: What about the IC50 [3] of the same compound?
Answer: The IC50 was 46.9 µM (active).

Question: For `COc1cccc(/C=C/C2=CC3(C)CC2(C)C(c2cccc(OC)c2)CC3=O)c1` (configuration not stated), which AC50 (Cytochrome P450 2D6) is on record?
Answer: The AC50 was 3.16 µM (inconclusive).

Question: Which EC50 (HEK293 [4]) does the source give for `O=C(c1ccc(S(=O)(=O)c2ccccc2Cl)c([N+](=O)[O-])c1)N1CCN(Cc2ccccc2)CC1` here?
Answer: Its EC50 is 12.9 µM (active).

Question: What about the IC50 (HEK293 [5]) of the same compound?
Answer: The IC50 was 4.59 µM (active).

Question: What about the IC50 (HEK293 [6]) of the same compound?
Answer: Its IC50 is 17.6 µM (active).

Question: And the EC50 [7]?
Answer: The EC50 was 11.8 µM (active).

Question: And the IC50 (HEK293 [8])?
Answer: Its IC50 is 5.54 µM (active).

Question: What about the IC50 (HEK293 [9]) of the same compound?
Answer: The IC50 was > 20 µM (inactive).

Question: What about the IC50 (Tumor necrosis factor) of the same compound?
Answer: Its IC50 is 6.58 µM (active).

Question: What about the IC50 [10] of the same compound?
Answer: Its IC50 is 3.65 µM (active).

Question: What about the AC50 [11] of the same compound?
Answer: Its AC50 is 5.77 µM (active).

Question: And the AC50 [12]?
Answer: The AC50 was 50 µM (active).

Question: And the AC50 [13]?
Answer: Its AC50 is 3.48 µM (active).

Question: What about the IC50 (HEK293 [14]) of the same compound?
Answer: Its IC50 is 15.3 µM (active).

Question: With `Cc1ccc(Nc2ccccc2N)cc1` as the compound, how does the CC50 [15] read?
Answer: Its CC50 is > 40 µM (active).

Question: What about the IC50 (Nonstructural protein 1) of the same compound?
Answer: Its IC50 is 21.9 µM (active).

Question: And the IC50 (cells)?
Answer: The IC50 was 0.74 µM (active).

Question: For `O=C(Oc1cccc(-c2cnc3ccccc3n2)c1)c1ccco1`, which EC50 (Estrogen receptor) is on record?
Answer: The EC50 was 26.9 µM (active).

Question: With `COC(=O)c1ccc(NCc2cc(O)ccc2O)cc1` as the compound, how does the IC50 (Hexokinase HKDC1) read?
Answer: The IC50 was 12.2 µM (active).

Question: With `Cc1nc2c(O)c3c(c(O)c2nc1C)C1C=CC3CC1` as the compound, how does the IC50 (Hexokinase HKDC1) read?
Answer: The IC50 was 2.23 µM (active).

Question: Which EC50 (Estrogen receptor) does the source give for `CCOC(=O)C(C)Oc1cccc2c(=O)n(CC(=O)Nc3ccc4c(c3)OCCO4)ccc12` (configuration not stated) here?
Answer: Its EC50 is 12.6 µM (not active).

Question: Which IC50 [16] does the source give for `O=[N+]([O-])c1cccc(/C=N/n2c(S)nnc2COc2ccccc2)c1` here?
Answer: The IC50 was > 100 µM (inactive).

Question: And the IC50 [17]?
Answer: The IC50 was 5.51 µM (active).

Reference: ChEMBL document CHEMBL1201862, “PubChem BioAssay data set” (2004)
